# Literature values as cited in US20130172294A1, “Treatment with VB-201” (Vascular Biogenics Ltd., priority 2010, published 2013).
# Tested on: collagen-induced arthritis
# Conditions: in vivo animal model; cited from earlier work
smiles,measurement,value
"CCCCCCCCCCCCCCCCOCC(COP(=O)([O-])OCC[N+](C)(C)C)OCCCCC(=O)O (stereo not shown) [VB-201, 1-hexadecyl-2-(4′-carboxybutyl)-glycerol-3-phosphocholine]",efficacy in collagen-induced arthritis,effective
